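In this assay, cells in 96-well plates receive the compound at five concentrations for 48 hours. Endpoints are linearly interpolated between the surrounding concentrations. GI50 is the concentration that inhibits growth by half. TGI denotes the concentration required for complete inhibition of growth.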
What was measured:
Experiment in all cases: NCI tumour cell line growth inhibition, 48 h
[1] = tested on: 786-0 renal
[2] = tested on: A498 renal
[3] = tested on: A549 NSCLC
[4] = tested on: ACHN renal
[5] = tested on: BT-549 breast
[6] = tested on: CAKI-1 renal
[7] = tested on: CCRF-CEM leukemia
[8] = tested on: COLO 205 colon
[9] = tested on: DU-145 prostate
[10] = tested on: HCC-2998 colon
[11] = tested on: HCT-116 colon
[12] = tested on: HCT-15 colon
[13] = tested on: HL-60(TB) leukemia
[14] = tested on: HOP-62 NSCLC
[15] = tested on: HS 578T breast
[16] = tested on: HT29 colon
[17] = tested on: IGROV1 ovarian
[18] = tested on: K-562 leukemia
[19] = tested on: KM12 colon
[20] = tested on: LOX IMVI melanoma
[21] = tested on: M14 melanoma
[22] = tested on: MALME-3M melanoma
[23] = tested on: MCF7 breast
[24] = tested on: MDA-MB-231 breast
[25] = tested on: MDA-MB-435
[26] = tested on: MOLT-4 leukemia
[27] = tested on: NCI-H226 lung
[28] = tested on: NCI-H23 lung
[29] = tested on: NCI-H460 lung
[30] = tested on: NCI-H522 lung
[31] = tested on: NCI/ADR-RES ovarian
[32] = tested on: OVCAR-3 ovarian
[33] = tested on: OVCAR-4 ovarian
[34] = tested on: OVCAR-5 ovarian
[35] = tested on: OVCAR-8 ovarian
[36] = tested on: PC-3 prostate
[37] = tested on: RPMI-8226 leukemia
[38] = tested on: RXF 393 renal
[39] = tested on: SF-268 CNS
[40] = tested on: SF-295 CNS
[41] = tested on: SF-539 CNS
[42] = tested on: SK-MEL-2 melanoma
[43] = tested on: SK-MEL-28 melanoma
[44] = tested on: SK-MEL-5 melanoma
[45] = tested on: SK-OV-3 ovarian
[46] = tested on: SN12C renal
[47] = tested on: SNB-19 CNS
[48] = tested on: SNB-75 CNS
[49] = tested on: SW-620 colon
[50] = tested on: T-47D breast
[51] = tested on: TK-10 renal
[52] = tested on: U251 CNS
[53] = tested on: UACC-257 melanoma
[54] = tested on: UACC-62 melanoma
[55] = tested on: UO-31 renal

Cn1cc(C2=C(n3ccc4ccccc43)C(=O)NC2=O)c2ccccc21
GI50 [1]: > 25 µM
TGI [1]: > 25 µM
GI50 [2]: > 25 µM
TGI [2]: > 25 µM
GI50 [3]: > 25 µM
TGI [3]: > 25 µM
GI50 [4]: > 25 µM
TGI [4]: > 25 µM
GI50 [5]: > 25 µM
TGI [5]: > 25 µM
GI50 [6]: > 25 µM
TGI [6]: > 25 µM
GI50 [7]: > 25 µM
TGI [7]: > 25 µM
GI50 [8]: > 25 µM
TGI [8]: > 25 µM
GI50 [9]: > 25 µM
TGI [9]: > 25 µM
GI50 [10]: > 25 µM
TGI [10]: > 25 µM
GI50 [11]: > 25 µM
TGI [11]: > 25 µM
GI50 [12]: > 25 µM
TGI [12]: > 25 µM
GI50 [13]: > 25 µM
TGI [13]: > 25 µM
GI50 [14]: > 25 µM
TGI [14]: > 25 µM
GI50 [15]: > 25 µM
TGI [15]: > 25 µM
GI50 [16]: > 25 µM
TGI [16]: > 25 µM
GI50 [17]: > 25 µM
TGI [17]: > 25 µM
GI50 [18]: > 25 µM
TGI [18]: > 25 µM
GI50 [19]: > 25 µM
TGI [19]: > 25 µM
GI50 [20]: > 25 µM
TGI [20]: > 25 µM
GI50 [21]: > 25 µM
TGI [21]: > 25 µM
GI50 [22]: > 25 µM
TGI [22]: > 25 µM
GI50 [23]: > 25 µM
TGI [23]: > 25 µM
GI50 [24]: > 25 µM
TGI [24]: > 25 µM
GI50 [25]: > 25 µM
TGI [25]: > 25 µM
GI50 [26]: > 25 µM
TGI [26]: > 25 µM
GI50 [27]: > 25 µM
TGI [27]: > 25 µM
GI50 [28]: > 25 µM
TGI [28]: > 25 µM
GI50 [29]: > 25 µM
TGI [29]: > 25 µM
GI50 [30]: > 25 µM
TGI [30]: > 25 µM
GI50 [31]: > 25 µM
TGI [31]: > 25 µM
GI50 [32]: > 25 µM
TGI [32]: > 25 µM
GI50 [33]: > 25 µM
TGI [33]: > 25 µM
GI50 [34]: > 25 µM
TGI [34]: > 25 µM
GI50 [35]: > 25 µM
TGI [35]: > 25 µM
GI50 [36]: > 25 µM
TGI [36]: > 25 µM
GI50 [37]: > 25 µM
TGI [37]: > 25 µM
GI50 [38]: > 25 µM
TGI [38]: > 25 µM
GI50 [39]: > 25 µM
TGI [39]: > 25 µM
GI50 [40]: > 25 µM
TGI [40]: > 25 µM
GI50 [41]: > 25 µM
TGI [41]: > 25 µM
GI50 [42]: > 25 µM
TGI [42]: > 25 µM
GI50 [43]: > 25 µM
TGI [43]: > 25 µM
GI50 [44]: > 25 µM
TGI [44]: > 25 µM
GI50 [45]: > 25 µM
TGI [45]: > 25 µM
GI50 [46]: > 25 µM
TGI [46]: > 25 µM
GI50 [47]: > 25 µM
TGI [47]: > 25 µM
GI50 [48]: > 9.34 µM
TGI [48]: > 25 µM
GI50 [49]: > 25 µM
TGI [49]: > 25 µM
GI50 [50]: > 25 µM
TGI [50]: > 25 µM
GI50 [51]: > 25 µM
TGI [51]: > 25 µM
GI50 [52]: > 25 µM
TGI [52]: > 25 µM
GI50 [53]: > 25 µM
TGI [53]: > 25 µM
GI50 [54]: > 25 µM
TGI [54]: > 25 µM
GI50 [55]: > 21.6 µM
TGI [55]: > 25 µM
